According to patent publication EP4603105A1, “PHARMACEUTICAL COMPOSITION CONTAINING CYCLIC COMPOUND HAVING SELECTIVE KRAS INHIBITORY EFFECT AGAINST HRAS AND NRAS” (CHUGAI SEIYAKU KABUSHIKI KAISHA, priority 2022, dated 2024):
*1 amine or outer side, *2 acyl side, *3 side chain or, on linkers, in order; H or OH if unused. Where a SMILES comes first, the peptide text is derived from it. Bridges are numbered along the chain shown (N, C = ends). [ ]: non-standard residue; d: D form. The star is where a group is joined. hPhe(3-Cl-4-CF3) = N[C@@H](CCc1ccc(C(F)(F)F)c(Cl)c1)C(=O)O; NPrPhe(4-CF3) = CCCN[C@@H](Cc1ccc(C(F)(F)F)cc1)C(=O)O; X2 = C[C@@H]1CN([*:1])[C@@H]1C(=O)[*:2]; NMeGly(cPent) = CN[C@H](C(=O)O)C1CCCC1; Pro(4,4-F2) = O=C(O)[C@@H]1CC(F)(F)CN1; NMeD = CN[C@@H](CC(=O)O)C(=O)O; NMeL = CN[C@@H](CC(C)C)C(=O)O; Morpholide = C1CN(*)CCO1; Ac5c = NC1(C(=O)O)CCCC1; Aze = O=C(O)[C@@H]1CCN1; Ac4c = NC1(C(=O)O)CCC1; Sar = CNCC(=O)O

Tests used:
[1] = biological target: GDP-bound KRAS wild-type protein (Homo sapiens, UniProt P01116); test: Binding to KRAS by surface plasmon resonance (SPR), dissociation constant KD; settings: 1:1 binding model
GDP-bound KRAS wild-type protein, sequence (P01116 1-188 isoform P01116-2): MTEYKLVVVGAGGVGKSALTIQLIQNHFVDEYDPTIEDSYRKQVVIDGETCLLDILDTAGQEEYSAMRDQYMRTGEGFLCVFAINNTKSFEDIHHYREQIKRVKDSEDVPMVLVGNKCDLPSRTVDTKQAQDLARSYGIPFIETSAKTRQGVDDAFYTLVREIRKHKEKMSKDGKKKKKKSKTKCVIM
How it was run: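 SPR, 30°C: Avi-biotin RAS·GDP captured via Biotin CAPture (~100–300 RU); running buffer HBS pH 7.4, 1 mM DTT, 10 mM MgCl2, 0.01% Tween 20, 10 µM GDP, 4% DMSO. Single-cycle kinetics, 100 µL/min, 75 s injections; 1:1 model → KD.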

[2] = biological target: GDP-bound NRAS wild-type protein (Homo sapiens, UniProt P01111); test: Binding to NRAS by surface plasmon resonance (SPR), KD and KD ratio to KRAS
GDP-bound NRAS wild-type protein, sequence (P01111 whole entry): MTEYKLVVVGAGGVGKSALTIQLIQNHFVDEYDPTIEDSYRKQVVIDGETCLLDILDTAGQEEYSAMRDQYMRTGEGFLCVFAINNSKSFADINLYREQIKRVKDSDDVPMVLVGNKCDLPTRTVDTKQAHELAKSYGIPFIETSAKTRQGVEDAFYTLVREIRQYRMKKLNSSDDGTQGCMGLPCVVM
How it was run: (§1)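 Single-cycle kinetics on GDP-loaded biotin-Avi RAS captured to ~100–300 RU; 75 s ascending injections, 100 µL/min, 30°C. HBS pH 7.4 + 10 mM MgCl2/10 µM GDP/4% DMSO. 1:1 fit, KD.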

HRAS wild-type protein = HRAS wild-type protein (Homo sapiens, UniProt P01112); test: Binding to HRAS by surface plasmon resonance (SPR), KD and KD ratio to KRAS
HRAS wild-type protein, sequence (P01112 whole entry): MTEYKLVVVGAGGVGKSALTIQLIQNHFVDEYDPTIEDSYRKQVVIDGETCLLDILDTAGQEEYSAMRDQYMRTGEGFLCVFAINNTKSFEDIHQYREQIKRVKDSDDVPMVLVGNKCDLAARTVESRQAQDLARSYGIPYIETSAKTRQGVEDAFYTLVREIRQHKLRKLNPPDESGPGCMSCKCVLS
How it was run: as §1

[3] = tested on: human lung cancer strain NCI-H441; assay type: cell-based
How it was run: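 Proliferation was scored by […] measured after the reagent was added to cultures kept at 37°C in 5% carbon dioxide.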

[4] = ratio of KD for GDP-bound NRAS wild-type protein to KD for KRAS
[5] = ratio of KD for HRAS wild-type protein to KD for KRAS
[6] = ratio of the KD value with respect to GDP-bound NRAS wild-type protein to the KD value with respect to KRAS
[7] = ratio of the KD value with respect to HRAS wild-type protein to the KD value with respect to KRAS

Kd [1] [nM] | IC50 [3] [nM] | Kd ([1]; Single Cycle Kinetics) [nM] | Structure (SMILES) | NRAS /KRAS [2, 4] | HRAS /KRAS (HRAS wild-type protein; [5]) | NRAS /KRAS [2, 6] | HRAS /KRAS (HRAS wild-type protein; [7]) | NRAS /KRAS ([2]; ratio of KD value for GDP-bound NRAS wild-type protein to KD value for KRAS (SPR)) | HRAS /KRAS (HRAS wild-type protein; ratio of KD value for HRAS wild-type protein to KD value for KRAS (SPR))
1.4 | 30.8 | – | CCCN1C(=O)CN(C)C(=O)[C@@H]2[C@H](C)CN2C(=O)[C@H]([C@@H](C)CC)NC(=O)[C@H](CC(C)C)N(C)C(=O)C[C@@H](C(=O)N2CCOCC2)N(C)C(=O)[C@H](C2CCCC2)N(C)C(=O)C2(CCCC2)NC(=O)[C@@H]2CCCN2C(=O)[C@H](CCc2ccc(C(F)(F)F)c(Cl)c2)NC(=O)CN(C)C(=O)[C@@H]1Cc1ccc(C(F)(F)F)cc1 [PP0257] ([NMeL]I[X2][Sar][NPrPhe(4-CF3)][Sar][hPhe(3-Cl-4-CF3)]P[Ac5c][NMeGly(cPent)][NMeD]-Morpholide; lactam N-11) | B (a compound having 3 or more and less than 10 is denoted as B) | B (a compound having 3 or more and less than 10 is denoted as B) | – | – | – | –
– | 10.7 | 0.17 | CCCN1C(=O)CN(C)C(=O)[C@@H]2CCN2C(=O)[C@H]([C@@H](C)CC)NC(=O)[C@H](CC(C)C)N(C)C(=O)C[C@@H](C(=O)N(C)C)N(C)C(=O)[C@H](C2CCCC2)N(C)C(=O)C2(CCC2)NC(=O)[C@@H]2CC(F)(F)CN2C(=O)[C@H](CCc2ccc(C(F)(F)F)c(Cl)c2)NC(=O)CN(C)C(=O)[C@@H]1Cc1ccc(C(F)(F)F)cc1 [PP0432] ([NMeL]I[Aze][Sar][NPrPhe(4-CF3)][Sar][hPhe(3-Cl-4-CF3)][Pro(4,4-F2)][Ac4c][NMeGly(cPent)][NMeD]-NMe2; lactam N-11) | – | – | B (a compound having 3 or more and less than 10 is denoted as B) | B (a compound having 3 or more and less than 10 is denoted as B) | – | –
– | 6.8 | 0.31 | CCO[C@@H]1C[C@H]2C(=O)NC(C)(C)C(=O)N(C)[C@@H](C3CCCC3)C(=O)N(C)[C@H](C(=O)N(C)CC)CC(=O)N(C)[C@@H](CC(C)C)C(=O)N[C@@H]([C@@H](C)CC)C(=O)N(C)CC(=O)N(C)[C@H]3C/C=C\CCN(C3=O)[C@@H](Cc3ccc(C(F)(F)F)cc3)C(=O)N(C)CC(=O)N[C@@H](CCc3cc(F)c(C(F)(F)F)c(F)c3)C(=O)N2C1 [PP1937] | – | – | A (a compound having 10 or more and less than 20 is denoted as A) | A (a compound having 10 or more and less than 20 is denoted as A) | – | –
0.076 | 9.7 | – | CCO[C@@H]1C[C@H]2C(=O)NC3(CC(C)(C)C3)C(=O)N(C)[C@@H](C3CCCC3)C(=O)N(C)[C@H](C(=O)N(C)CC)CC(=O)N(C)[C@@H]([C@@H](C)OC)C(=O)N[C@@H]([C@@H](C)CC)C(=O)N(C)CC(=O)N(C)[C@H]3C/C=C\CCN(C3=O)[C@@H](Cc3ccc(C(F)(F)F)cc3)C(=O)N(C)CC(=O)N[C@@H](CCc3ccc(C(F)(F)F)c(OC)c3)C(=O)N2C1 [PP3158] | A (a compound having 10 or more and less than 20 is denoted as A) | A (a compound having 10 or more and less than 20 is denoted as A) | – | – | – | –
4.4 | 507 | – | CC[C@H](C)[C@@H]1NC(=O)[C@H](COC)N(C)C(=O)C[C@@H](C(=O)N(C)CC)N(C)C(=O)[C@H](C2CCCC2)N(C)C(=O)C2(CC(C)(C)C2)NC(=O)[C@@H]2C[C@@H](F)CN2C(=O)[C@H](CCc2cc(F)cc(F)c2)NC(=O)CN(C)C(=O)[C@H](Cc2ccc(C(F)(F)F)cc2)N2CC/C=C\C[C@@H](C2=O)N(C)C(=O)CN(C)C1=O [PP3138] | A (a compound having 10 or more and less than 20 is denoted as A) | A (a compound having 10 or more and less than 20 is denoted as A) | – | – | – | –
1.2 | 63.6 | – | CCO[C@@H]1C[C@H]2C(=O)NC3(CC(C)(C)C3)C(=O)N(C)[C@@H](C3CCCC3)C(=O)N(C)[C@H](C(=O)N(C)C)CC(=O)N(C)[C@@H]([C@H](C)OC)C(=O)N[C@@H]([C@@H](C)CC)C(=O)N3CCC[C@H]3C(=O)N(C)[C@H]3C/C=C\CCN(C3=O)[C@@H](Cc3ccc(C(F)(F)F)cc3)C(=O)N(C)CC(=O)N[C@@H](CCc3ccc(C(F)(F)F)c(Cl)c3)C(=O)N2C1 [PP3183] | B (a compound having 3 or more and less than 10 is denoted as B) | B (a compound having 3 or more and less than 10 is denoted as B) | – | – | – | –
– | 118 | 2.6 | CCO[C@@H]1C[C@H]2C(=O)NC3(CCC3)C(=O)N(C)[C@@H](C3CCCC3)C(=O)N(C)[C@H](C)CC(=O)N(C)[C@@H](CC3CC3)C(=O)N[C@@H]([C@@H](C)CC)C(=O)N(C)CC(=O)N(C)[C@H]3C/C=C\CCN(C3=O)[C@@H](Cc3ccc(F)cc3C)C(=O)N(C)CC(=O)N[C@@H](CCc3cc(F)c(C(F)(F)F)c(F)c3)C(=O)N2C1 [PP1489] | – | – | – | – | B (a compound having 3 or more and less than 10 is denoted as B) | B (a compound having 3 or more and less than 10 is denoted as B)
